Values of other authors as cited in US20020001575A1, “Nutritional system for nervous system disorders” (priority 2000, published 2002).

Details: autistic children and adults, 18 consecutive studies 1965-1996

With Vitamin B-6 as the substance, how does the helpfulness in autism read?
Its helpfulness in autism is “helpful in almost half of all autistic children and adults”.
